Source: US6242443A, “1,2,4-benzothiadiazine derivatives, their preparation and use” (Novo Nordisk AIS, priority 1996, dated 2001)

These molecules were tested on rat aorta rings (assay: Relaxation of rat aorta rings (phenylephrine-contracted)). Details: rat thoracic aorta rings contracted with phenylephrine to 80% of maximum response, cumulative addition; read-out: EC50 (concentration required to evoke a 50% relaxation of the tissue).
Format: cell-based
Protocol: The activity of the compounds as potassium channel openers can also be measured as relaxation of rat aortas rings according to the following procedure:
A section of rat thoracic aorta between the aortic arch and the diaphragm was dissected out and mounted as ring preparations as described by Taylor P. D. et al, Brit J. Pharmacol, 111, 42-48 (1994).
After a 45 min. equilibration period under a tension of 2 g, the preparations were contracted to achieve 80% of the maximum response using the required concentration of phenylephrine. When the phenylephrine response reached a plateau, potential vasodilatory agents were added cumulatively to the bath in small volumes using half log molar increments at 2 min intervals. Relaxation was expressed at the percentage of the contracted tension. The potency of a compound was expressed as the concentration required to evoke a 50% relaxation of the tissue.

Compound	EC50 [µM]
CC(C)NC1=NS(=O)(=O)c2ccc(C(F)(F)F)cc2N1 [Example 50, 3-Isopropylamino-6-trifluoromethyl-4H-1,2,4-benzothiadiazine 1,1-dioxide]	5.2
C[C@H](NC1=NS(=O)(=O)c2cc(I)ccc2N1)c1ccccc1 [Example 88, 7-Iodo-3-(S)-(1-phenylethyl)amino-4H-1,2,4-benzothiadiazine 1,1-dioxide]	32.7
CCNC1=NS(=O)(=O)c2cc(Br)ccc2N1 [Example 94, 7-Bromo-3-ethylamino-4H-1,2,4-benzothiadiazine 1,1-dioxide]	4.8
CCNC1=NS(=O)(=O)c2cc(F)ccc2N1 [Example 101, 3-Ethylamino-7-fluoro-4H-1,2,4-benzothiadiazine 1,1-dioxide]	14.1

The molecules below were run on RIN 5F cells (assay: 86Rb+ efflux from a β-cell line (increased Rb-efflux in RIN 5F cells)). Details: 1 h at room temperature, pH 7.1.
Format: cell-based
Protocol: ^86 Rb^+ efflux from a β-cell line
The RIN 5F cell line was grown in RPMI 1640 with Glutamax I, supplemented with 10% fetal calf serum (from GibcoBRL, Scotland, UK) and maintained in an atmosphere of 5% CO2 /95% air at 37° C. The cells were detached with a Trypsin-EDTA solution (from GibcoBRL, Scotland, UK), resuspended in medium, added 1 mCi/ml ^86 Rb^+ and replated into microtiter plates (96 well cluster 3596, sterile, from Costar Corporation,MA, USA) at a density of 50000 cells/well in 100 μl/well, and grown 24 hours before use in assay.
The plates were washed 4 times with Ringer buffer (150 mM NaCl, 10 mM Hepes, 3.0 mM KCl, 1.0 mM CaCl2, 20 mM Sucrose, pH 7.1). Eighty μl Ringer buffer and 1 μl control- or test compound dissolved in DMSO was added. After incubation 1 h at room temperature with a lid, 50 μl of the supernatant was transferred to PicoPlates (Packard Instrument Company, CT, USA) and 100 μl MicroScint40 (Packard Instrument Company, CT, USA) added. The plates were counted in TopCount (Packard Instrument Company, CT, USA) for 1 min/well at the ^32 P program.
The calculation of EC50 and Emax was done by SlideWrite (Advanced Graphics Software, Inc., CA, USA) using a four parameter logistic curve: y=(a-d)/(1+(x/c)^b)+d, where a=the activity estimated at concentration zero, b=a slope factor, c=the concentration at the middle of the curve and, d=the activity estimated at infinite concentration. EC50 =c and Emax =d, when the curve is turned of at infinite concentrations.

Compound	EC50 [µM]
CC(C)C(C)NC1=NS(=O)(=O)c2cc(Cl)c(Cl)cc2N1 (stereo not shown) [Example 26, 6,7-Dichloro-3-(1,2-dimethylpropyl)amino-4H-1,2,4-benzothiadiazine 1,1-dioxide]	12.9
O=S1(=O)N=C(NCC2CCCCC2)Nc2ccc(Cl)cc21 [Example 66, 7-Chloro-3-(cyclohexylmethyl)amino-4H-1,2,4-benzothiadiazine 1,1-dioxide]	9.4
O=S1(=O)N=C(NCc2ccccc2)Nc2ccc(I)cc21 [Example 86, 3-Benzylamino-7-iodo-4H-1,2,4-benzothiadiazine 1,1-dioxide]	13
